Experimental data from PMC9501633, “Synthesis, Characterisation and Mechanism of Action of Anticancer 3-Fluoroazetidin-2-ones” (Pharmaceuticals, 2022).
pIC50: −log10 of the molar value.

How the values were obtained:
HEK-293T cells = assay: AlamarBlue cell viability assay, non-tumourigenic cells; assay type: cell-based, human; conditions: Homo sapiens, 72 h
Description: (§1) The cytotoxicity of the potent β-lactam 33 was investigated in the non-tumourigenic HEK-293T cell line (normal human embryonic kidney) at 72 h. […] For example, the cell viability of HEK cells at 1 μM was 88% in contrast to the cell viability of 36% for MCF-7 cells at 1 μM.
(§2) Cells were seeded at a density of 5 × 10^3 cells/well (MCF-7 and MDA-MB-231) and 1 × 10^4 cells/well (HEK-293T) in 96-well plates (200 μL per well). After 24 h, cells were then treated with medium alone, with vehicle (1% ethanol (v/v)) or with CA-4 or β-lactam compounds at 1 μM and 10 μM concentrations. […] Cell proliferation for MCF-7 cells was analysed with the AlamarBlue assay (Invitrogen Corp.) as previously described by us. […] Fluorescence results were obtained with a 96-well fluorimeter with excitation at 530 nm and emission at 590 nm with results recorded as percentage viability relative to vehicle control (100%). […]
(§3) Figure 4 Antiproliferative activity of 3-fluoro β-lactams on MCF-7, MDA-MB-231, Hs578T and Hs578T isogenic subclone Hs578T(i)8 breast cancer cells and non-tumourigenic HEK-293T cells. […] Cell viability was expressed as a percentage of vehicle control (ethanol 1% (v/v))-treated cells. […] Cell viability was expressed as a percentage of vehicle control (ethanol 1% (v/v))-treated cells and was measured by AlamarBlue assay (average of three independent experiments). […]

[1] = as above; assay type: cell-based, human; conditions: human, HEK-293T cells (non-tumourigenic), 1 μM
Description: as §1, §2, §3

[2] = Stability under degradation conditions (HPLC); assay type: physicochemical
Description: The β-lactam ring is known to undergo hydrolysis/degradation depending on the substituent type on the ring. For example, degradation of monocyclic β-lactam antibiotic aztreonam increased with elevated humidity, temperature and acidic pH buffer. Ezetimibe, a monocyclic β-lactam drug used to reduce blood cholesterol, undergoes degradation and hydrolysis more rapidly in neutral and basic pH conditions than in acidic pH [71]. The stability of representative compounds 33 and 39 was also determined at pH 4, pH 7.4 (plasma) and pH 9 (intestine) by HPLC. […] The electron-withdrawing effect of the 3-fluoro substituent may result in decreasing stability of the β-lactam ring in response to acid hydrolysis.
The stability study for compounds 33 and 39 was performed using analytical HPLC (Symmetry column (C18, […], 4.6 × 150 mm), dual wavelength absorbance detector (Waters 2487), binary HPLC pump (Waters 1525) and autosampler (Waters 717 plus)) with mobile phase acetonitrile (70%)/water (30%), flow rate 1 mL/min over 15 min and detection at λ 254 nm. Stock solutions of compounds 33 and 39 (1 mg/mL in mobile phase) were used. Dilutions of 0.5 mg/mL, 0.25 mg/mL, 0.125 mg/mL, 0.0625 mg/mL, 0.03125 mg/mL, 0.015625 mg/mL and 0.0078 mg/mL were prepared for the calibration curve. (i) Stability of 33 and 39 in phosphate buffers: The phosphate buffers were prepared in accordance with the British Pharmacopoeia 2020 at pH values 4, 7.4 and 9. Stock solution, 300 µL (1 mg/mL ACN), was added to a vial containing buffer (9.7 mL), mixed and pre-heated to 37 °C. 1 mL of the solution was introduced into an HPLC vial. Samples (10 µL) were injected and analysed at time intervals of t = 0 min, 5 min, 30 min, 60 min and hourly for 24 h. The analysis was performed in triplicate. (ii) Thermal stability: Compounds 33 and 39 (1 mL stock solution) were each placed in a vial for 4 h at 60 °C on a heating block. The sample was then cooled, diluted with acetonitrile and analysed by HPLC. (iii) Photostability study: Compounds 33 and 39 (stock solution, 1 mL) were placed in a vial, exposed to UV light for 4 h and then analysed by HPLC. (iv) Stability in acidic conditions: HCl (0.1 M, 0.2 mL) was added to stock solutions (0.8 mL) of 33 and 39 in a vial. The vial was vortexed and retained at room temperature. A sample was neutralised with NaOH (0.1 M, 0.2 mL) each hour for 4 h and then analysed by HPLC. (v) Stability of 33 and 39 in basic (alkaline) conditions: NaOH (0.1 M, 0.2 mL) was added to stock solution (0.8 mL) in a vial. The vial was vortexed and retained at room temperature. A sample was neutralised with HCl (0.1 M, 0.2 mL) every hour for 4 h then analysed by HPLC. (vi) Stability of 33 and 39 in oxidising conditions: H2O2 (3%, 0.2 mL) was added to the stock solution (0.8 mL). The vial was vortexed to obtain a homogeneous mixture and retained at room temperature, and a sample was analysed by HPLC every hour for 4 h.

Compound: COc1ccc(C2C(F)C(=O)N2c2cc(OC)c(OC)c(OC)c2)cc1F (stereo not shown) [Compound 33, 3-Fluoro-4-(3-fluoro-4-methoxyphenyl)-1-(3,4,5-trimethoxyphenyl)azetidin-2-one]
- pIC50 (HEK-293T cells): < 4.30
- viability at 72 h, 1 µM [1]: 88%
- remaining at 4 h, 0.8 mg/mL ([2]; 0.1 M HCl added to stock solution, acidic (0.1 M HCl)): 60%
- remaining at 4 h, 0.8 mg/mL ([2]; 0.1 M NaOH added to stock solution, alkaline (0.1M NaOH)): 65%
- remaining at 4 h, 0.8 mg/mL ([2]; 3% H2O2 added to stock solution, oxidative (3% H2O2)): 65%
- remaining at 4 h, 1 mg/mL ([2]; stock solution in acetonitrile/water under UV light, UV light): 88%
- remaining at 4 h, 1 mg/mL ([2]; stock solution in acetonitrile/water, heated, heat (60 °C)): 90%
